# Data from patent US20170056351A1, “COMPOSITION FOR INDUCING TUMOR IMMUNITY” (UNIVERSITY OF OCCUPATIONAL AND ENVIRONMENTAL HEALTH, JAPAN, priority 2014, published 2017).
# What was measured:
# 9L cells [1] = test: Intracellular level of 5-ALA-induced PpIX by flow cytometric analysis, 9L; type: cell-based, rat; conditions: average±SE
# Description: (§1) Two types of rat glioma cell lines (9L and C6) and human glioma cell lines (U251 and T98G) were used. Before use, 9L and T98G were cultured in RPMI-1640 at 37° C. for several days, whereas C6 and U251 were cultured in 10% FBS-added Dulbecco's modified Eagle's medium (DMEM) at 37° C. for several days. These cell lines were maintained at 37° C. in 5% CO2 in a humidified incubator. The cells were subcultured at an exponential growth phase thereof, using 0.05% trypsin solution containing 0.5 mM ethylenediamine tetraacetate. 70% confluent cells were used in the subsequent experiments. 5-ALA was dissolved in RPMI-1640 (9L and T98G), or in 10% FBS-added DMEM (C6 and U251), to a final concentration of 1 mM.
# (§2) The cells were seeded on a 100-mm culture dish, and were then cultured. The cells were incubated in a complete medium containing 1 mM 5-ALA for 4 hours, and were then washed with PBS. The resulting cells were peeled from the bottom layer by a trypsin treatment, and were then recovered by centrifugation (400×g, 3 min, and 4° C.). Immediately after the recovery, the cells were re-suspended in cold PBS/FBS, and were then analyzed using a flow cytometer (EC800; Sony Biotechnology, Tokyo, Japan). Generally, 30,000 cells contained in each sample were evaluated. Using 488-nm argon ion laser, fluorescence was excited from intracellular PpIX, and the fluorescence was then detected using a 640/30 nm band-pass filter. In order to prevent photoactivation of 5-ALA-induced PpIX, all procedures were carried out in a dark room. The flow cytometric data were analyzed using FlowJo (Tree Star Inc., Ashland, Oreg., USA). The mean fluorescence intensity (MFI) of PpIX fluorescence in the 5-ALA-treated cells, with respect to that of 5-ALA-not-treated cells, was calculated for each cell line.
# U251 cells [2] = test: Intracellular level of 5-ALA-induced PpIX by flow cytometric analysis, U251; type: cell-based, human; conditions: average±SE
# Description: as §1, §2
# C6 cells = test: Intracellular level of 5-ALA-induced PpIX by flow cytometric analysis, C6; type: cell-based, rat; conditions: 1 mM 5-ALA for 4 hours, relative to 5-ALA-not-treated cells, average±SE
# Description: Two types of rat glioma cell lines (9L and C6) and human glioma cell lines (U251 and T98G) were used. Before use, 9L and T98G were cultured in RPMI-1640 at 37° C. for several days, whereas C6 and U251 were cultured in 10% FBS-added Dulbecco's modified Eagle's medium (DMEM) at 37° C. for several days. These cell lines were maintained at 37° C. in 5% CO2 in a humidified incubator. The cells were subcultured at an exponential growth phase thereof, using 0.05% trypsin solution containing 0.5 mM ethylenediamine tetraacetate. 70% confluent cells were used in the subsequent experiments. […]
# as §2, with “The cells were incubated in a complete medium containing 1 mM 5-ALA for 4 hours, and were then washed with PBS. The resulting cells were peeled from the bottom layer by a trypsin treatment, and were then recovered by centrifugation (400×g, 3 min, and 4° C.).” left out, “In order to prevent photoactivation of 5-ALA-induced PpIX, all procedures were carried out in a dark room.” left out
# 9L cells [3] = test: Cellular ROS levels after ionizing irradiation (DCFD, flow cytometry), 9L; type: cell-based, rat; conditions: for relative MFI of DCF fluorescence 12 hours after ionizing irradiation, timing study: 10 Gy
# Description: Intracellular ROS production was evaluated using the oxidant-sensitive fluorescence probe DCFD and flow cytometry (Yamamori T, Yasui H, Yamazumi M, et al: Ionizing radiation induces mitochondrial reactive oxygen species production accompanied by upregulation of mitochondrial electron transport chain function and mitochondrial content under control of the cell cycle checkpoint. Free Radic Biol Med 53: 260-270, 2012.). The cells were seeded on a 100-mm culture dish, and using an X-ray irradiation apparatus (MBR-1520R; Hitachi, Tokyo, Japan) (0.67 Gy/min), the cells were then irradiated with a radiation of 10 Gy in a dark room. During the ionizing irradiation, the culture dish was maintained at a room temperature in a dark container. In the case of a 5-ALA and ionizing irradiation group (RT,12 h+ALA), the cells were treated with 1 mM 5-ALA for 4 hours, then, immediately after the treatment, the cells were irradiated with ionizing radiation, and were then incubated together with 10 μM DCFD at 37° C. for 15 minutes, followed by washing with PBS twice. Thereafter, as described above, the cells were analyzed using a flow cytometer (excitation: 488 nm; radiation: 525/50 nm band-pass filter). Control cells were not exposed to ionizing radiation or 5-ALA. In a 5-ALA group, the cells were treated with 1 mM 5-ALA for 4 hours, but were not exposed to ionizing radiation. The control cells and the cells of the 5-ALA group were treated with DCFD in the same manner as described above. In order to prevent the photoactivation of 5-ALA-induced PpIX and DCFD, all procedures were carried out in a dark room. The flow cytometric data were analyzed using FlowJo (Tree Star Inc., Ashland, Oreg., USA). The MFI of the DCF fluorescence in the cells, with respect to that in control cells, was calculated for each cell line.
# The cells were seeded on a 100-mm culture dish, and were then exposed to an ionizing radiation of 10 Gy. The incubation time (4 h) of 1 mM 5-ALA was the same among individual groups, and three types of 5-ALA treatment times were initiated: i) 5-ALA treatment immediately before ionizing irradiation [RT+ALA (pre) group]; ii) 5-ALA treatment immediately after ionizing irradiation [RT+ALA (4 h) group]; and iii) 5-ALA treatment 8 hours after ionizing irradiation [RT+ALA (12 h) group]. In each group, twelve hours after the ionizing irradiation, the cells were incubated together with 10 μM DCFD at 37° C. for 15 minutes, and were then washed with PBS twice. Immediately after the washing, as described above, DCF fluorescence was analyzed using a flow cytometer. Control cells were not treated with ionizing radiation or 5-ALA. In a group involving only ionizing irradiation (RT), the cells were exposed to ionizing radiation, without performing 5-ALA treatments, and were then treated with DCFD twelve hours after the exposure to the ionizing radiation in the same manner as described above. All procedures were carried out in a dark room. The flow cytometric data were analyzed using FlowJo software. The MFI of the DCF fluorescence in the cells, with respect to that in control cells, was calculated for each cell line.
# U251 cells [4] = test: Intracellular localization of ROS 12 hours after ionizing radiation (DCFD, confocal laser scanning microscope), U251; type: cell-based, human; conditions: pre-treatment with 1 mM 5-ALA 4 hours before 10 Gy, 12 hours after irradiation, vs no 5-ALA
# Description: Intracellular ROS production was detected by our method using DCFD and a confocal laser scanning microscope (LMS5 Pascal; Carl Zeiss, Jena, Germany) (Yamamoto J, Ogura S, Tanaka T, et al: Radiosensitizing effect of 5-aminolevulinic acid-induced protoporphyrin IX in glioma cells in vitro. Oncol Rep 27: 1748-1752, 2012.). Briefly, the cells were seeded in a fresh medium containing 1 mM 5-ALA in a 35-mm glass-bottom culture dish (Asahi Techno Glass, Tokyo, Japan), and were then incubated at 37° C. for 4 hours in a dark room. Thereafter, the cells were washed with PBS, and were then exposed to an ionizing radiation of 10 Gy. Twelve hours after the ionizing irradiation, the cells were washed with PBS twice, and were then incubated together with 10 μM DCFD for 15 minutes. Thereafter, the cells were washed with PBS twice, and immediately after the washing, the resulting cells were observed. DCFD fluorescence (excitation: 488 nm; radiation: 505-530 nm band-pass filter) was imaged on a confocal laser scanning microscope. All procedures were carried out in a dark room.
# [5] = living body; cited from earlier work
# [6] = 1 mM 5-ALA for 4 hours, relative to 5-ALA-not-treated cells
# [7] = 4 hours after ionizing irradiation
# [8] = 12 hours after ionizing irradiation
# [9] = 24 hours after ionizing irradiation
smiles,measurement,setting,value
"NCC(=O)CCC(=O)O [ALA, 5-aminolevulinic acid]",relative MFI of PpIX fluorescence,9L cells [1]; [6],21.5±0.12
same,relative MFI of PpIX fluorescence after ionizing irradiation,9L cells [1]; [7],15.2±0.15
same,relative MFI of PpIX fluorescence after ionizing irradiation,9L cells [1]; [8],15.9±0.73
same,relative MFI of PpIX fluorescence after ionizing irradiation,9L cells [1]; [9],13.4±2.43
same,relative MFI of PpIX fluorescence,U251 cells [2]; [6],37.6±0.12
same,relative MFI of PpIX fluorescence after ionizing irradiation,U251 cells [2]; [7],41.6±0.20
same,relative MFI of PpIX fluorescence after ionizing irradiation,U251 cells [2]; [8],44.2±3.67
same,relative MFI of PpIX fluorescence after ionizing irradiation,U251 cells [2]; [9],51.1±3.76
same,relative MFI of PpIX fluorescence,C6 cells,20.2±0.56
same,relative MFI of DCF fluorescence (cellular ROS),"9L cells [3]; 1 mM 5-ALA 4 hours, without ionizing irradiation, relative to control cells, average±SE",1.19±0.07
same,"relative MFI of DCF fluorescence 12 hours after ionizing irradiation, timing study","9L cells [3]; 5-ALA treatment 8 hours after ionizing irradiation, RT+ALA (12 h) group",1.58±0.11
same,"relative MFI of DCF fluorescence 12 hours after ionizing irradiation, timing study","9L cells [3]; 5-ALA treatment immediately after ionizing irradiation, RT+ALA (4 h) group",1.57±0.05
same,"relative MFI of DCF fluorescence 12 hours after ionizing irradiation, timing study","9L cells [3]; 5-ALA treatment immediately before ionizing irradiation, RT+ALA (pre) group",1.93±0.10
same,relative MFI of DCF fluorescence (cellular ROS),"9L cells [3]; 12 hours after 10 Gy ionizing irradiation with 5-ALA pre-treatment (1 mM, 4 hours), p=0.009 vs RT 12 h",1.91±0.19
same,DCF fluorescence in the cytoplasm (confocal),U251 cells [4],apparently increased
same,time until ALA is metabolized and discharged from the body,[5],≤ 48 h
